pEC50, pIC50: −log10 of the molar value.

This note sets out measurements from patent publication US8598157B2, “5-alkynyl-pyridines” (Boehringer Ingelheim International GmbH, priority 2011, dated 2013).

For experiment [1], the target named is PI3Kalpha (Homo sapiens (Human), UniProt P42336). The experiment in a line: Inhibition of PI3Kalpha-induced PIP-2 phosphorylation (filter-binding assay). Type of experiment: biochemical. Conditions: 33P-ATP, p85alpha/His-p110alpha, read-out: IC50 PI3Kα. A digest of the protocol:
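Radiometric filter-binding assay: PI3Kα (25 ng/well) preincubated 20 min at room temperature with compound and PIP2-containing lipid vesicles plus phosphotyrosine PDGFRβ peptide. Reaction started with cold ATP (1 μM final) and [33P]-ATP and run 120 min at room temperature; filter-captured radioactivity counted, IC50 from duplicate dilution series.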

For experiment [2], the system named is H460 cells. The experiment in a line: alamarBlue H460 cell assay (antiproliferative/cytotoxicity). Conditions: NCI-H460; H460 human lung carcinoma cells. Type of experiment: cell-based. A digest of the protocol:
(§1)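 Growth inhibition is assessed over 5-6 days of compound exposure (10 μM top, threefold dilutions) using alamarBlue fluorescence; EC50 values are fitted after subtracting medium blank.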
Background: Alamar Blue is a resazurin reagent that responds to reducing activity.

Experiment [3] concerns MB453 cells. Kind of experiment: alamarBlue MB453 cell assay (antiproliferative/cytotoxicity). Type of experiment: cell-based. Conditions: Homo sapiens; MDA MB 453 breast cancer cell line. A digest of the protocol: as §1
In experiment [4] the test system is U87 cells. Kind of experiment: U87 cell assay (antiproliferative/cytotoxicity). Type of experiment: cell-based. As to conditions: U-87MG human glioblastoma cells. A digest of the protocol:
as §1

Experiment [5] concerns MCF7 cells. Kind of experiment: alamarBlue MCF7 cell assay (antiproliferative/cytotoxicity). It counts as cell-based. Conditions: MCF7 human breast cancer cell line. In short, it runs like this:
as §1

Experiment [6] relates to BT474 cells. The experiment in a line: alamarBlue BT474 cell assay (antiproliferative/cytotoxicity). It counts as cell-based. As to conditions: BT-474 human breast cancer cell line. In short, it runs like this:
as §1

Sequence of PI3Kalpha (P42336 whole entry): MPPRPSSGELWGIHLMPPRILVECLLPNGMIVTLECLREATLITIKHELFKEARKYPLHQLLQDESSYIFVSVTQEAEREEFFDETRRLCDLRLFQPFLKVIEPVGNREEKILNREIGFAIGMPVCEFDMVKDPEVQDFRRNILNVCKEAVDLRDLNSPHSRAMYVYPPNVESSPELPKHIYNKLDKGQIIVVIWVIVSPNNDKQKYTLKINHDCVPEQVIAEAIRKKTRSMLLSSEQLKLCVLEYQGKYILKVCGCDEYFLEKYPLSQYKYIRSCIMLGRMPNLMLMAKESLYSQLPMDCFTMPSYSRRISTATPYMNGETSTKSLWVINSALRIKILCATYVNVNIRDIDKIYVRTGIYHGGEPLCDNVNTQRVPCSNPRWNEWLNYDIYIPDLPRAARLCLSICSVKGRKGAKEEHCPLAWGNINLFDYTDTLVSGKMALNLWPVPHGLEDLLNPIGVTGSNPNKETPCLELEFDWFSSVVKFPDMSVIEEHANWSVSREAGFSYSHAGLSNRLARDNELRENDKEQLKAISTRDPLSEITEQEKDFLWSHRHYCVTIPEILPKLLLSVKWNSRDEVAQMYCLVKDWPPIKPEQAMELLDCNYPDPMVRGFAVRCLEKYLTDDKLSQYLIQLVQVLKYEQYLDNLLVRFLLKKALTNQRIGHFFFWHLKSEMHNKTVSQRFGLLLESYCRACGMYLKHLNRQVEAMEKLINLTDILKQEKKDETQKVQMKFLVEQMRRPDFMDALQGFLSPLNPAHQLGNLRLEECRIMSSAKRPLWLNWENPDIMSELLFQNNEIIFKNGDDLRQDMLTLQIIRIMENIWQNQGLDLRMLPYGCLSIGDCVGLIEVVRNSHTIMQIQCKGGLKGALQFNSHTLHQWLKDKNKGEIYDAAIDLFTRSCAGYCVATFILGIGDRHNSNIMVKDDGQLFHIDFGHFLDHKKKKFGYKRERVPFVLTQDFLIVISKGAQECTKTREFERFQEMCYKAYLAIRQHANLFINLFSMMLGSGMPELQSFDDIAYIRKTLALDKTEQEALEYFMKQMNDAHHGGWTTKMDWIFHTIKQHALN

Consider `CCc1ncnc(N2CCOCC2)c1C#Cc1cnc(OC)c(NS(=O)(=O)c2ccccc2)c1` [Example I-26, N-[5-(4-Ethyl-6-morpholin-4-yl-pyrimidin-5-ylethynyl)-2-methoxy-pyridin-3-yl]-benzenesulfonamide], for which the pIC50 in experiment [1] is 9.23. For the same molecule, the pEC50 in experiment [2] was 7.68; in experiment [3], 7.21; in experiment [4], 7.01; in experiment [5] it was 8.05; in experiment [6], 7.55.
With `CCc1ncnc(N(C)C)c1C#Cc1cnc(C)c(NS(=O)(=O)c2ccc(F)cc2)c1` [Example I-27, N-[5-(4-Dimethylamino-6-ethyl-pyrimidin-5-ylethynyl)-2-methyl-pyridin-3-yl]-4-fluoro-benzenesulfonamide], the pIC50 in experiment [1] was 9.00. The pEC50 in experiment [2] is 6.10; in experiment [3], 5.91; in experiment [4] it was 5.79; in experiment [5], 5.00; in experiment [6] it was 5.00.
As for `CCc1ncnc(N2CCN(C3CC3)CC2)c1C#Cc1cnc(C)c(NS(=O)(=O)c2ccc(F)cc2)c1` [Example I-28, N-{5-[4-(4-Cyclopropyl-piperazin-1-yl)-6-ethyl-pyrimidin-5-ylethynyl]-2-methyl-pyridin-3-yl}-4-fluoro-benzenesulfonamide], the pIC50 in experiment [1] is 8.30. Further, the pEC50 was 6.12 in experiment [2]; 5.73 in experiment [3]; 4.84 in experiment [4]; 5.00 in experiment [5]; 5.00 in experiment [6].
Turning to `COc1ncc(C#Cc2c(C)ncnc2N2CCOCC2)cc1NS(=O)(=O)c1ccc(F)cc1F` [Example I-29, 2,4-Difluoro-N-[2-methoxy-5-(4-methyl-6-morpholin-4-yl-pyrimidin-5-ylethynyl)-pyridin-3-yl]-benzenesulfonamide], the pIC50 in experiment [1] is 9.36. Besides, the pEC50 is 7.96 in experiment [2]; 7.55 in experiment [3]; 7.08 in experiment [4]; 8.52 in experiment [5]; 8.00 in experiment [6].
`Cc1ncc(C#Cc2c(C)ncnc2N2CCOCC2)cc1NS(=O)(=O)c1ccc(F)cc1` [Example I-30, 4-Fluoro-N-[2-methyl-5-(4-methyl-6-morpholin-4-yl-pyrimidin-5-ylethynyl)-pyridin-3-yl]-benzenesulfonamide]: the pIC50 in experiment [1] was 9.37. In addition, the negative-log EC50 (pEC50) in experiment [2] is 6.64; in experiment [3], 6.83; in experiment [4], 6.41; in experiment [5] it was 7.68; in experiment [6] it was 6.91.
With `Cc1ncc(C#Cc2c(C)ncnc2N2CCOCC2)cc1NS(=O)(=O)c1cc(F)cc(F)c1` [Example I-31, 3,5-Difluoro-N-[2-methyl-5-(4-methyl-6-morpholin-4-yl-pyrimidin-5-ylethynyl)-pyridin-3-yl]-benzenesulfonamide], the pIC50 in experiment [1] was 9.01. For the same molecule, the pEC50 in experiment [2] was 6.29; in experiment [3], 6.61; in experiment [4] it was 6.22; in experiment [5], 7.30; in experiment [6] it was 6.75.
As for `CCc1ncnc(N(C)C)c1C#Cc1cnc(C)c(NS(C)(=O)=O)c1` [Example I-32, N-[5-(4-Dimethylamino-6-ethyl-pyrimidin-5-ylethynyl)-2-methyl-pyridin-3-yl]-methanesulfonamide], in experiment [1], the pIC50 was 8.10. In addition, the pEC50 in experiment [2] was 5.92; in experiment [3] it was 6.18; in experiment [4], 5.89; in experiment [5], 6.21; in experiment [6], 5.73.
For `Cc1ncc(C#Cc2c(C)ncnc2N2CCOCC2)cc1NS(C)(=O)=O` [Example I-37, N-[2-Methyl-5-(4-methyl-6-morpholin-4-yl-pyrimidin-5-ylethynyl)-pyridin-3-yl]-methanesulfonamide], the pIC50 in experiment [1] is 9.00. In addition, the pEC50 in experiment [2] was 6.04; in experiment [3], 6.50; in experiment [4], 6.02; in experiment [5], 6.87; in experiment [6], 6.38.
As for `Cc1ncc(C#Cc2c(C)ncnc2N2CCOCC2)cc1NS(=O)(=O)C(C)C` [Example I-38, Propane-2-sulfonic acid [2-methyl-5-(4-methyl-6-morpholin-4-yl-pyrimidin-5-ylethynyl)-pyridin-3-yl]-amide], in experiment [1], the negative logarithm of the IC50 (pIC50) is 8.70. For the same molecule, the pEC50 in experiment [2] is 6.08; in experiment [3], 6.19; in experiment [4], 6.08; in experiment [5], 6.52; in experiment [6], 5.91.
Turning to `Cc1ncc(C#Cc2c(C)ncnc2N2CCOCC2)cc1NS(=O)(=O)C1CCCCC1` [Example I-39, Cyclohexanesulfonic acid [2-methyl-5-(4-methyl-6-morpholin-4-yl-pyrimidin-5-ylethynyl)-pyridin-3-yl]-amide], the pIC50 in experiment [1] was 8.30. Also, the pEC50 is 5.73 in experiment [2]; 5.75 in experiment [3]; 5.54 in experiment [4]; 5.89 in experiment [5]; 5.56 in experiment [6].
As to `Cc1ncc(C#Cc2c(C)ncnc2N2CCOCC2)cc1NS(=O)(=O)c1ccccc1` [Example I-40, N-[2-Methyl-5-(4-methyl-6-morpholin-4-yl-pyrimidin-5-ylethynyl)-pyridin-3-yl]-benzenesulfonamide], in experiment [1], the pIC50 is 9.55. Also, the pEC50 in experiment [2] was 6.92; in experiment [3] it was 6.84; in experiment [4] it was 6.41; in experiment [5] it was 7.31; in experiment [6], 6.83.
`Cc1ncc(C#Cc2c(C)ncnc2N2CCOCC2)cc1NS(=O)(=O)c1ccc(F)cc1F` [Example I-41, 2,4-Difluoro-N-[2-methyl-5-(4-methyl-6-morpholin-4-yl-pyrimidin-5-ylethynyl)-pyridin-3-yl]-benzenesulfonamide]: the pIC50 in experiment [1] is 9.29. Moreover, the pEC50 in experiment [2] is 6.84; in experiment [3], 6.99; in experiment [4] it was 6.54; in experiment [5] it was 7.72; in experiment [6], 7.16.
Consider `Cc1ncc(C#Cc2c(C)ncnc2N2CCOCC2)cc1NS(=O)(=O)c1cnoc1C` [Example I-47, 5-Methyl-isoxazole-4-sulfonic acid [2-methyl-5-(4-methyl-6-morpholin-4-yl-pyrimidin-5-ylethynyl)-pyridin-3-yl]-amide], for which the pIC50 in experiment [1] is 7.68. Also, the pEC50 was 4.60 in experiment [2]; 4.60 in experiment [3]; 4.60 in experiment [4]; 5.00 in experiment [5]; 5.00 in experiment [6].
On to `Cc1cc(S(=O)(=O)Nc2cc(C#Cc3c(C)ncnc3N3CCOCC3)cnc2C)c(C)s1` [Example I-48, 2,5-Dimethyl-thiophene-3-sulfonic acid [2-methyl-5-(4-methyl-6-morpholin-4-yl-pyrimidin-5-ylethynyl)-pyridin-3-yl]-amide], for which the pIC50 in experiment [1] was 9.26. The pEC50 is 7.00 in experiment [2]; 6.27 in experiment [3]; 6.47 in experiment [4]; 7.85 in experiment [5]; 6.12 in experiment [6].
As for `Cc1ncc(C#Cc2c(C)ncnc2N2CCOCC2)cc1NS(=O)(=O)c1ccco1` [Example I-49, Furan-2-sulfonic acid [2-methyl-5-(4-methyl-6-morpholin-4-yl-pyrimidin-5-ylethynyl)-pyridin-3-yl]-amide], the pIC50 in experiment [1] is 8.70. For the same molecule, the pEC50 in experiment [2] was 6.45; in experiment [3], 6.41; in experiment [4] it was 6.29; in experiment [5], 7.31; in experiment [6], 6.35.
On to `Cc1ncc(C#Cc2c(C)ncnc2N2CCOCC2)cc1NS(=O)(=O)c1ccoc1` [Example I-50, Furan-3-sulfonic acid [2-methyl-5-(4-methyl-6-morpholin-4-yl-pyrimidin-5-ylethynyl)-pyridin-3-yl]-amide], for which, in experiment [1], the pIC50 is 9.00. The pEC50 was 6.89 in experiment [2]; 6.62 in experiment [3]; 6.54 in experiment [4]; 7.80 in experiment [5]; 6.48 in experiment [6].
As for `Cc1ncc(C#Cc2c(C)ncnc2N2CCOCC2)cc1NS(=O)(=O)c1ccc(Cl)s1` [Example I-52, 5-Chloro-thiophene-2-sulfonic acid [2-methyl-5-(4-methyl-6-morpholin-4-yl-pyrimidin-5-ylethynyl)-pyridin-3-yl]-amide], the negative-log IC50 (pIC50) in experiment [1] was 9.33. Further, the pEC50 in experiment [2] was 6.56; in experiment [3], 6.53; in experiment [4] it was 6.35; in experiment [5] it was 7.41; in experiment [6], 6.65.
For the molecule `Cc1ncc(C#Cc2c(C)ncnc2N2CCOCC2)cc1NS(=O)(=O)c1c(C)noc1C` [Example I-53, 3,5-Dimethyl-isoxazole-4-sulfonic acid [2-methyl-5-(4-methyl-6-morpholin-4-yl-pyrimidin-5-ylethynyl)-pyridin-3-yl]-amide], the pIC50 in experiment [1] is 8.70. Further, the pEC50 was 6.10 in experiment [2]; 6.04 in experiment [3]; 5.89 in experiment [4]; 6.87 in experiment [5]; 6.05 in experiment [6].
Regarding `Cc1ncc(C#Cc2c(C)ncnc2N2CCOCC2)cc1NS(=O)(=O)c1cccnc1` [Example I-54, Pyridine-3-sulfonic acid [2-methyl-5-(4-methyl-6-morpholin-4-yl-pyrimidin-5-ylethynyl)-pyridin-3-yl]-amide], the pIC50 in experiment [1] was 9.00. In addition, the pEC50 in experiment [2] was 6.26; in experiment [3] it was 6.56; in experiment [4] it was 6.24; in experiment [5], 7.36; in experiment [6] it was 6.02.

As usually defined, the pIC50 is −log10 of the IC50, conventionally taken in molar units. For orientation: pEC50 means the EC50 on a negative log10 scale, so that one unit is a factor of ten. A higher pEC50 goes with a small EC50.
